This note sets out measurements from patent US12565489B2, “Heterocyclyl pyrimidines and triazines as novel fungicides” (Bayer Aktiengesellschaft, priority 2020, dated 2026).

A word on the chromatographic logP: it is a lipophilicity value derived from retention on a column. A low value points to lower lipophilicity. As a reminder, the inhibition is the drop in the measured response relative to a control, in per cent.

A short description of data set [1]: Measurement of Log P values by HPLC on reversed phase columns (EEC directive 79/831 Annex V.A8). Type of data set: physicochemical. The note with it: LogP. As to the method:
Measurement of Log P values as provided herein was performed according to EEC directive 79/831 Annex V.A8 by HPLC (High Performance Liquid Chromatography) on reversed phase columns with the following methods: • ^[a] Log P value is determined by measurement of LC-UV, in an acidic range, with 0.1% formic acid in water and acetonitrile as eluent (linear gradient from 10% acetonitrile to 95% acetonitrile). • ^[b] Log P value is determined by measurement of LC-UV, in a neutral range, with 0.001 molar ammonium acetate solution in water and acetonitrile as eluent (linear gradient from 10% acetonitrile to 95% acetonitrile). • ^[c] Log P value is determined by measurement of LC-UV, in an acidic range, with 0.1% phosphoric acid and acetonitrile as eluent (linear gradient from 10% acetonitrile to 95% acetonitrile).
If more than one Log P value is available within the same method, all the values are given and separated by “+”.
Calibration was done with straight-chain alkan2-ones (with 3 to 16 carbon atoms) with known Log P values (measurement of Log P values using retention times with linear interpolation between successive alkanones). Lambda-max-values were determined using UV-spectra from 200 nm to 400 nm and the peak values of the chromatographic signals

For data set [2], the system named is Botrytis cinerea. As to the kind of experiment: Botrytis cinerea in vitro cell test. Type of data set: cell-based. The note with it: 144 h, 20 ppm of active ingredient, 6 days incubation, liquid culture, spectrometric measurement of mycelium growth, read-out: efficacy (inhibition of fungal growth). As to the method: (§1) • Solvent: DMSO • Culture medium: 1 g KH2PO4 (VWR), 1 g K2HPO4 (VWR), 0.5 g Urea (VWR), 3 g KNO3 (Prolabo), 10 g saccharose (VWR), 0.5 g MgSO4, 7H2O (Sigma), 0.07 g CaCl2, 2H2O (Prolabo), 0.2 mg MnSO4, H2O (Sigma), 0.6 mg CuSO4, 5H2O (Sigma), 7.9 mg ZnSO4, 7H2O (Sigma), 0.1 mg H3BO3 (Merck), 0.14 mg NaMoO4, 2H2O (Sigma), 2 mg thiamine (Sigma), 0.1 mg biotine (VWR), 4 mg FeSO4, 7H2O (Sigma), QSP 1 liter • Inoculum: spore suspension Fungicides were solubilized in DMSO and the solution used to prepare the required range of concentrations. […] A spore suspension of B. cinerea was prepared and diluted to the desired spore density. Fungicides were evaluated for their ability to inhibit spore germination and mycelium growth in liquid culture assay. The compounds were added in the desired concentration to the culture medium with spores. After 6 days incubation, fungi-toxicity of compounds was determined by spectrometric measurement of mycelium growth. Inhibition of fungal growth was determined by comparing the absorbance values in wells containing the fungicides with the absorbance in control wells without fungicides.

Data set [3] has as its system Alternaria alternata. As to the kind of experiment: Alternaria alternata in vitro cell test. Type of data set: cell-based. The note with it: 120 h, 20 ppm of active ingredient, 5 days incubation, liquid culture, spectrometric measurement of mycelium growth, read-out: efficacy (inhibition of fungal growth). The procedure:
(§2) • Solvent: DMSO • Culture medium: 14.6 g anhydrous D-glucose (VWR), 7.1 g Mycological Peptone (Oxoid), 1.4 g granulated Yeast Extract (Merck), QSP 1 liter • Inoculum: spore suspension Fungicides were solubilized in DMSO and the solution used to prepare the required range of concentrations. […] A spore suspension of A. alternata was prepared and diluted to the desired spore density. Fungicides were evaluated for their ability to inhibit spore germination and mycelium growth in liquid culture assay. The compounds were added in the desired concentration to the culture medium with spores. After 5 days incubation, fungi-toxicity of compounds was determined by spectrometric measurement of mycelium growth. Inhibition of fungal growth was determined by comparing the absorbance values in wells containing the fungicides with the absorbance in control wells without fungicides.

Data set [4] has as its system Colletotrichum lindemuthianum. As to the kind of experiment: Colletotrichum lindemuthianum in vitro cell test. Type of data set: cell-based. The note with it: 144 h, 20 ppm of active ingredient, 6 days incubation, liquid culture, spectrometric measurement of mycelium growth, read-out: efficacy (inhibition of fungal growth). The procedure: as §2, with “of C. lindemuthianum” for “of A. alternata”, “inhibit spores” for “inhibit spore”, “After 6” for “After 5”

Data set [5] has as its system Pyrenophora teres. The experiment in a line: Pyrenophora teres in vitro cell test. Type of data set: cell-based. The note with it: 144 h, 20 ppm of active ingredient, 6 days incubation, liquid culture, spectrometric measurement of mycelium growth, read-out: efficacy (inhibition of fungal growth). As to the method:
as §2, with “P. teres” for “A. alternata”, “6” for “5”

In data set [6] the test system is Sphaerotheca fuliginea. The experiment in a line: In vivo preventive test on Sphaerotheca fuliginea (powdery mildew on cucurbits). The note with it: Podosphaera fuliginea, 192 h; 500 ppm of active ingredient; preventive spray on young gherkin plants; evaluated 8 days after inoculation; read-out: efficacy. As to the method: The active ingredients were made soluble and homogenized in a mixture of Dimethyl sulfoxide/Acetone//Tween®80 and then diluted in water to the desired concentration. The young plants of gherkin were treated by spraying the active ingredient prepared as described above. Control plants were treated only with an aqueous solution of Acetone/Dimethyl sulfoxide/Tween® 80. After 24 hours, the plants were contaminated by spraying the leaves with an aqueous suspension of Sphaerotheca fuliginea spores.

For data set [7], the system named is Botrytis cinerea. The experiment in a line: In vivo preventive test on Botrytis cinerea (grey mould). The note with it: 500 ppm of active ingredient, preventive spray on young gherkin or cabbage plants, evaluated 4 to 5 days after inoculation, read-out: efficacy. As to the method:
The active ingredients were made soluble and homogenized in a mixture of Dimethyl sulfoxide/Acetone//Tween®80 and then diluted in water to the desired concentration. The young plants of gherkin or cabbage were treated by spraying the active ingredient prepared as described above. Control plants were treated only with an aqueous solution of Acetone/Dimethyl sulfoxide/Tween® 80. After 24 hours, the plants were contaminated by spraying the leaves with an aqueous suspension of Botrytis cinerea spores.

Data set [8] relates to Alternaria brassicae. As to the kind of experiment: In vivo preventive test on Alternaria brassicae (leaf spot on radish or cabbage). The note with it: 144 h, 500 ppm of active ingredient, preventive spray on young radish or cabbage plants, evaluated 6 days after inoculation, read-out: efficacy. As to the method: The active ingredients were made soluble and homogenized in a mixture of Dimethyl sulfoxide/Acetone//Tween®80 and then diluted in water to the desired concentration. The young plants of radish or cabbage were treated by spraying the active ingredient prepared as described above. Control plants were treated only with an aqueous solution of Acetone/Dimethyl sulfoxide/Tween® 80. After 24 hours, the plants were contaminated by spraying the leaves with an aqueous suspension of Alternaria brassicae spores.

In data set [9] the test system is Colletotrichum lindemuthianum. As to the kind of experiment: In vivo preventive test on Colletotrichum lindemuthianum (leaf spot on bean). The note with it: 168 h, 500 ppm of active ingredient, preventive spray on young bean plants, evaluated 7 days after inoculation, read-out: efficacy. As to the method:
The active ingredients were made soluble and homogenized in a mixture of Dimethyl sulfoxide/Acetone//Tween®80 and then diluted in water to the desired concentration. The young plants of bean were treated by spraying the active ingredient prepared as described above. Control plants were treated only with an aqueous solution of Acetone/Dimethyl sulfoxide/Tween® 80. After 24 hours, the plants were contaminated by spraying the leaves with an aqueous suspension of Colletotrichum lindemuthianum spores.

Data set [10] has as its system Septoria tritici. As to the kind of experiment: Septoria tritici in vitro cell test. The note with it: Zymoseptoria tritici, 168 h; 20 ppm of active ingredient; 7 days incubation; liquid culture, spectrometric measurement of mycelium growth; read-out: efficacy (inhibition of fungal growth). Type of data set: cell-based. The procedure:
as §1, with “S. tritici” for “B. cinerea”, “After 6 days incubation, fungi-toxicity of compounds was determined by spectrometric measurement of mycelium growth.” left out

`Cc1ccc([C@@H]2CON=C(c3nc(C)ncc3Oc3cccc(Cl)c3)N2)c(C)c1` (racemic) [Compound I-034] had a chromatographic logP in [1] of 3.8. The inhibition at 20 ppm in data set [2] lay in the range of 90 to 100%; in data set [3], 90 to 100%; in data set [4], 70 to 79%; in data set [5] it was 90 to 100%.
Take `Cc1ccc(C[C@@H]2CON=C(c3nc(C)ncc3Oc3cccc(OC(F)F)c3)N2)c(C)c1` (racemic) [Compound I-007]: the pest or weed control at 500 ppm in data set [6], in data set [7], in [8] and in data set [9] was 90 to 100% throughout. The compound also showed a chromatographic logP in [1] of 3.94. Moreover, the inhibition at 20 ppm lay within 90 to 100% in data set [2], 70 to 79% in [3], 90 to 100% in [4] and 90 to 100% in data set [5].
For `COc1ccc(C[C@@H]2CON=C(c3nc(C)ncc3Oc3cccc(C(F)(F)F)c3)N2)c(Cl)c1` (racemic) [Compound I-012], the pest or weed control at 500 ppm in data set [6], in data set [7], in data set [8] and in data set [9] was 90 to 100% each time. This compound returned a chromatographic logP in data set [1] of 4.08. In addition, the inhibition at 20 ppm in data set [2] and in [5] was 90 to 100% throughout.
With `Cc1ccc(CC(CON2C(=O)c3ccccc3C2=O)NC(=O)c2nc(C3CC3)ncc2Oc2cccc(C(F)(F)F)c2)c(C)c1` (racemic) [Compound 3-01, 2-cyclopropyl-N-{(2RS)-1-(2,4-dimethylphenyl)-3-[(1,3-dioxo-1,3-dihydro-2H-isoindol-2-yl)oxy]propan-2-yl}-5-[3-(trifluoromethyl)phenoxy]pyrimidine-4-carboxamide], the chromatographic logP in [1] was 5.4.
The same measure, in the same setting: under `Cc1ncc(Oc2cccc(C(F)(F)F)c2)c(C(=NO)N[C@@H](CCl)Cc2ccc(SC(F)(F)F)cc2)n1` (racemic) [Compound 11-10] stands 4.66; under `C=Cc1cccc(Oc2cnc(C)nc2C(=O)O)c1` [Compound 1-06], 1.87.
`Cc1ncc(Oc2cccc(Cl)c2)c(C(N)=NO)n1` [Compound 17-01, 5-(3-chlorophenoxy)-N′-hydroxy-2-methyl-pyrimidine-4-carboxamidine] gave a chromatographic logP in data set [1] of 1.66.
On the same count and under the same terms, the same measure for `CSc1ncc(Br)c(C(=O)N[C@@H](CON2C(=O)c3ccccc3C2=O)Cc2ccc(C)cc2Cl)n1` (racemic) [Compound 3-03]: 4.62; for `Cc1ncc(Oc2cccc(C(F)(F)F)c2)c(C(=NO)N[C@@H](CCl)Cc2ccc(OC(F)F)cc2Cl)n1` (racemic) [Compound 11-09]: 4.08; for `C#Cc1cccc(Oc2cnc(C)nc2C(=O)O)c1` [Compound 1-05]: 1.77.
Take `Cc1ncc(Oc2cccc(C(F)(F)F)c2)c(C2=NOC[C@@H](Cc3csc(C(F)(F)F)c3)N2)n1` (racemic) [Compound I-015]: the pest or weed control at 500 ppm lay within 80 to 89% in data set [6], 70 to 79% in data set [7], 80 to 89% in [8] and 90 to 100% in data set [9]. The compound also yielded a chromatographic logP in data set [1] of 4.17. Besides, the inhibition at 20 ppm in data set [2] fell in the range of 90 to 100%; in data set [3], 70 to 79%; in data set [4] it was 90 to 100%; in data set [5] it was 90 to 100%.
For the compound `CSc1ncc(Oc2cccc(C(F)(F)F)c2)c(C2=NOC[C@@H](Cc3ccc(C)cc3Cl)N2)n1` (racemic) [Compound I-020], the pest or weed control at 500 ppm in data set [6], in data set [7] and in data set [8] was 90 to 100% each time. In addition, in [1], the chromatographic logP worked out at 5.14. Moreover, the inhibition at 20 ppm in data set [2] lay in the range of 90 to 100%; in data set [4] it was 90 to 100%; in data set [5], 90 to 100%; in [10], 70 to 79%.
Compound `Cc1ncc(Oc2cccc(C(F)(F)F)c2)c(C(=O)N[C@@H](CCl)Cc2ccc(SC(F)(F)F)cc2)n1` (racemic) [Compound 10-09] registered a chromatographic logP in [1] of 4.92.
